Like-named read-outs stand apart in the source and are kept apart here.
Test system: NICD (Notch intracellular domain) CSL-bla reporter in HeLa cells
Experiment: Notch assay (CellSensor T-REx NICD CSL-bla HeLa beta-lactamase reporter; Method 1 / Method 2)
Format: cell-based
Details: Homo sapiens, 10 μM compound, read-out: inhibiton (%) at 10 μM
Text: We used the CellSensor T-REx™ NICD CSL-bla HeLa cell line, which was engineered by lentiviral transduction of HeLa cells with a Notch response element driving beta-lactamase reporter gene expression (CSL-bla) along with DOX (doxycycline)-inducible NICD (Notch intracellular domain) constructs. Addition of DOX to these cells allows for regulated NICD transcription factor expression and subsequent beta-lactamase expression.
Specifically, the following protocol was used.
NOTCH ASSAY PROTOCOL (Method 2)
• 1. Add 40 nL/well of working concentration of 1000× compound to 384-well assay plate with Echo. • 2. Plate Cells: 35 μl/well of HeLa/T-REx™ NICD CSL-bla cells at 10^3 cells/well complete medium into 384-well plate. • 3. Add 5 μl 8× Doxycycline in Assay Medium to the treated wells, and 5 μl Assay Medium to the Untreated and cell free control wells. • 4. Incubate the assay plate in a humidified 37° C./5% CO2 incubator for 16-20 hours. • 5. Preparation of 6× LiveBLAzer™-FRET B/G Substrate (CCF4-AM) Mixture according to the manual and cell loading should be done in the absence of direct strong lighting. • 6. Remove assay plate from the humidified 37° C./5% CO2 incubator. Add 8 μl of 6× Substrate Mixture from Step 5 to each well. Cover the plate to protect it from light and evaporation. Incubate at room temperature for 4 hours. • 7. Reading an Assay Plate using the following filter selections:
• 8. Data analysis: Use the assay plate layout to identify the location of the Cell-free wells. These control wells are used for background subtraction. Determine the average emission from the Cell-free wells at both 460 nm (Average Blue Background) and 530 nm(Average Green Background). Subtract the Average Blue Background (data collected at 460 nm) from all of the blue emission data. Subtract the Average Green background (data collected at 530 nm) from all of the green emission data. Calculate the Blue/Green Emission Ratio for each well, by dividing the background-subtracted blue emission values by the background-subtracted green emission values.
Instead of Step 1 to Step 3, the following Step a to Step d can also be performed. The subsequent steps are the same as Method 2, after Step 4 (Method 1). • a. Plate Cells: 32 μL/well of HeLa/T-REx™ NICD CSL-bla cells at 10^3 cells/well complete medium into 384-well plate. • b. Prepare 10× compounds in assay medium. • c. Add 4 μL compounds or 1% DMSO in assay medium to the cells. • d. Add 4 μL 10×Doxycycline in Assay Medium to the treated wells, and 4 μL Assay Medium to the Untreated and cell free control wells.
The results are shown in Table 13 (Table 13-1 to Table 13-2).

[1] = Method 2 (40 nL of 1000× compound added to plate with Echo)
[2] = Method 1 (10× compound prepared in assay medium, added to plated cells)

| Structure (SMILES) | inhibition at 10 µM [1] [%] | inhibition at 10 µM [2] [%] |
| --- | --- | --- |
| CC[C@H](C)[C@H]1C(=O)N(CCc2cccc3ccccc23)CC2N(C(=O)OCCc3ccc(O)cc3)O[C@H](Cc3ccc(O)cc3)C(=O)N21 (stereo partly drawn) [Compound I-46, (3R,6S)-4-hydroxyphenethyl 6-((S)-sec-butyl)-3-(4-hydroxybenzyl)-8-(2-(naphthalen-1-yl)ethyl)-4,7-dioxohexahydropyrazino[2,1-c][1,2,4]oxadiazine-1(6H)-carboxylate] | 75.6 |  |
| CCCC[C@H]1C(=O)N(CC2CCCCC2)CC2N(C(=O)OCc3cccc4ccccc34)O[C@@H](CC(N)=O)C(=O)N21 (stereo partly drawn) [Compound I-26, (3S,6S)-naphthalen-1-ylmethyl 3-(2-amino-2-oxoethyl)-6-butyl-8-(cyclohexylmethyl)-4,7-dioxohexahydropyrazino[2,1-c][1,2,4]oxadiazine-1(6H)-carboxylate] |  | 68.4 |
| CCCC[C@H]1C(=O)N(CCc2cccc3ccccc23)CC2N(C(=O)OCCc3ccc(O)cc3)O[C@H](Cc3ccc(O)cc3)C(=O)N21 (stereo partly drawn) [Compound I-45, (3R,6S)-4-hydroxyphenethyl 6-butyl-3-(4-hydroxybenzyl)-8-(2-(naphthalen-1-yl)ethyl)-4,7-dioxohexahydropyrazino[2,1-c][1,2,4]oxadiazine-1(6H)-carboxylate] | 54.9 |  |
| CC(C)[C@H]1C(=O)N(CC2CCCCC2)CC2N(C(=O)OCc3cccc4ccccc34)O[C@H](CC(N)=O)C(=O)N21 (stereo partly drawn) [Compound I-18, (3R,6S)-naphthalen-1-ylmethyl 3-(2-amino-2-oxoethyl)-8-(cyclohexylmethyl)-6-isopropyl-4,7-dioxohexahydropyrazino[2,1-c][1,2,4]oxadiazine-1(6H)-carboxylate] |  | 54 |
| CC(C)CCNC(=O)[C@H](Cc1ccc(O)cc1)N1CC2N(C(=O)OCCC(C)C)O[C@H](Cc3ccccc3)C(=O)N2[C@@H](Cc2ccc(O)cc2)C1=O (stereo partly drawn) [Compound I-107, isopentyl (3R,6S)-3-benzyl-6-(4-hydroxybenzyl)-8-((S)-3-(4-hydroxyphenyl)-1-(isopentylamino)-1-oxopropan-2-yl)-4,7-dioxohexahydropyrazino[2,1-c][1,2,4]oxadiazine-1(6H)-carboxylate] | 61.1 |  |
| CC(C)C[C@H]1ON(CCCc2ccccc2)C2CN(C3CCNCC3)C(=O)[C@H](CC(C)C)N2C1=O (stereo partly drawn) [Compound I-147, (3R,6S)-3,6-diisobutyl-1-(3-phenylpropyl)-8-(piperidin-4-yl)tetrahydropyrazino[2,1-c][1,2,4]oxadiazine-4,7(3H,6H)-dione] | 50.2 |  |
| NC(=O)CC[C@H]1C(=O)N([C@@H](Cc2ccccc2)C(=O)NCCCc2ccccc2)CC2N(C(=O)OCCc3ccccc3)O[C@H](Cc3ccccc3)C(=O)N21 (stereo partly drawn) [Compound I-125, phenethyl (3R,6S)-6-(3-amino-3-oxopropyl)-3-benzyl-4,7-dioxo-8-((S)-1-oxo-3-phenyl-1-((3-phenylpropyl)amino)propan-2-yl)hexahydropyrazino [2,1-c][1,2,4]oxadiazine-1(6H)-carboxylate] | 59.6 |  |
| CCCCCCNC(=O)N1O[C@H](Cc2ccccc2)C(=O)N2C1CN(CCC(c1ccccc1)c1ccccc1)C(=O)[C@@H]2CCC(N)=O (stereo partly drawn) [Compound I-57, (3R,6S)-6-(3-amino-3-oxopropyl)-3-benzyl-8-(3,3-diphenylpropyl)-N-hexyl-4,7-dioxohexahydropyrazino[2,1-c][1,2,4]oxadiazine-1(6H)-carboxamide] | 63.4 |  |
| CC(C)NC(=O)N1O[C@H](CCCNC(=N)N)C(=O)N2C1CN(Cc1cccc3ccccc13)C(=O)[C@@H]2C (stereo partly drawn) [Compound I-51, (3R,6S)-3-(3-guanidinopropyl)-N-isopropyl-6-methyl-8-(naphthalen-1-ylmethyl)-4,7-dioxohexahydropyrazino[2,1-c][1,2,4]oxadiazine-1(6H)-carboxamide] | 55.3 |  |

Source: patent US20230374034A1, “NOVEL BICYCLIC COMPOUNDS” (PRISM BIOLAB CO., LTD., priority 2020, published 2023)
